Measurements as given in patent EP0182152B1, “Antitumor antibiotics (LL-E33288 Complex)” (AMERICAN CYANAMID COMPANY, priority 1984, dated 1986).

Key:
[1] = tested on: lymphocytic leukemia P388; experiment: Lymphocytic Leukemia P388 Test; type: in vivo, BDF1 mice
Text: (§1) Certain in vivo testing systems and protocols have been developed by the National Cancer Institute for testing compounds to determine their suitability as anti-neoplastic agents. These have been reported in "Cancer Chemotherapy Reports", Part III, Vol. 3, No. 2 (1972), Geran, et al. These protocols have established standardized screening tests which are generally followed in the field of testing for antitumor agents. Of these systems, lymphocytic leukemia P388, melanotic melanoma B16, L1210 leukemia and colon 26 adenocarcinoma are particularly significant to the present invention. These neoplasms are utilized for testing as transplantable tumors in mice. Generally, significant anti-tumor activity, shown in these protocols by a percentage increase of mean survival times of the treated animals (T) over the control animals (C), is indicative of similar results in human leukemias and solid tumors.
The animals used were BDF1 mice, all of one sex, weighing a minimum of 17 g and all within a 3 g weight range. There were 5 or 6 mice per test group. The tumor transplant was by intraperitoneal injection of 0.5 ml of dilute ascitic fluid containing 10^6 cells of lymphocytic leukemia P388. LL-E33288 antibiotics were tested in the P388 system both as the individual β1-Br and […] components and as a complex of all components (Bromo-complex). The test compounds were administered intrapertioneally at a volume of 0.5 ml in 0.2% Klucel in normal saline on days 1, 5 and 9 (relative to tumor inoculation) at the indicated doses. The mice were weighed and the survivors recorded on a regular basis for 30 days. The median survival time and the ratio of survival time for treated (T)/control (C) animals were calculated. The positive control compound was Cisplatin given as an intraperitioneal injection in 0.5 ml of 0.2% Klucel on days 1, 5 and 9 at the indicated doses.
If T/C X 100 (%) is 125 or over, the tested compound is considered to have significant anti-tumor activity.
(§2) In the same manner, the following iodo-components were tested for antineoplastic activity.

melanotic melanoma B16 = experiment: Melanotic Melanoma B16 Test; type: in vivo, BDF1 mice
Text: as §1
The animals used were BDF1 mice, all of the same sex, weighing a minimum of 17 g and all within a 3 g weight range. There are normally 6 animals per test group. A 1 g portion of melanotic melanoma β16 tumor was homogenized in 10 ml of cold balanced salt solution and a 0.5 ml aliquot of the homogenate was implanted intraperitoneally into each of the test mice. LL-E33288 antibiotics were tested in the β16 system both as the individual β1-Br and γ1-Br components and as a complex of all components (Bromo-complex). The test compounds were administered intraperitioneally on days 1 through 9 (relative to tumor inoculation) at various doses. The mice were weighed and survivors recorded on a regular basis for 60 days. The median survival time and the ratio of survival time for treated (T)/control (C) animals were calculated. The positive control compounds were Cisplatin or Adriamycin. The results of this test appear in Table V. If T/C X 100 (%) is 125 or over, the tested compound is considered to have significant anti-tumor activity.
as §2

[2] = tested on: lymphocytic leukemia L1210; experiment: Lymphocytic Leukemia L1210 Test; type: in vivo, BDF1 mice
Text: as §1
The animals used were BDF1 mice, all of one sex, weighing a minimum of 17 g and all within a 3 g weight range. There were 6 mice in each test group and 18 in control groups. The tumor transplant was by intraperitoneal injection of 0.5 ml of lymphocytic leukemia L1210 at a concentration of 10^5 cells per mouse. LL-E33288 antibiotics were tested in the L1210 system both as the individual β1-Br component and as a complex of all components (Bromo-complex). The test compounds were administered on days 1, 5 and 9 or days 1 through 9 (relative to tumor inoculation) at various doses. The mice were weighed and survivors recorded on a regular basis for 30 days. The median survival time and the ratio of survival time for treated (T)/control (C) animals were calculated. The positive control compound was 1,4-dihydroxy-5,8-bis[[2-(2-hydroxyethylamino)ethyl]amino]anthraquinone dihydrochloride or Cisplatin given intraperitoneally at the indicated dose. If T/C X 100 (%) is 125 or over, the tested compound is considered to have significant anti-tumor activity.
as §2

Colon 26 tumor = experiment: Colon 26 Adenocarcinoma Test; type: in vivo, CD2F1 female mice
Text: as §1
The animals used were CD2F1 female mice weighing a minimum of 17 g and all within a 3 g weight range. There were 5 or 6 mice per test group with three groups of 5 or 6 animals used as untreated controls for each test. The tumor implant was by intraperitoneal (or subcutaneous) injection of 0.5 ml of a 2% Colon 26 tumor brei in Eagle's MEM medium containing antibiotics. LL-E33288 antibiotics were tested in the Colon 26 system as a complex (Bromo-complex) of all components. The test compounds were administered intraperitoneally on days 1, 5 and 9 (relative to tumor implant doses). The mice were weighed and deaths recorded on a regular basis for 30 days. The median survival times for treated (T)/control (C) animals were calculated. The positive control compound was Cisplatin. If T/C X 100 (%) is 130 or over, the tested compound is considered to have significant anti-tumor activity.
as §2

[3] = Table IX, Test 1, dose .00015 mg/kg, control 13 days
[4] = Table IX, Test 1, dose .0003 mg/kg, control 13 days
[5] = Table IX, Test 1, dose .0006 mg/kg, control 13 days
[6] = Table IX, Test 1, dose .00125 mg/kg, control 13 days
[7] = Table IX, Test 1, dose .0025 mg/kg, control 13 days
[8] = Table IX, Test 1, dose .005 mg/kg, control 13 days
[9] = Table IX, Test 2, dose - .00125 mg/kg, control 11 days
[10] = Table IX, Test 2, dose .00015 mg/kg, control 11 days
[11] = Table IX, Test 2, dose .0003 mg/kg, control 11 days
[12] = Table IX, Test 2, dose .0006 mg/kg, control 11 days
[13] = Table IX, Test 2, dose .0025 mg/kg, control 11 days
[14] = Table IX, Test 2, dose .005 mg/kg, control 11 days
[15] = Table IX, Test 2, dose .01 mg/kg, control 11 days
[16] = Table X, dose .00007 mg/kg, control value not given
[17] = Table X, dose .00015 mg/kg, control value not given
[18] = Table X, dose .0003 mg/kg, control value not given
[19] = Table X, dose .0006 mg/kg, control value not given
[20] = Table X, dose .00125 mg/kg, control value not given
[21] = Table X, dose .0025 mg/kg, control value not given
[22] = Table XI, dose .0006 mg/kg, control 9 days
[23] = Table XI, dose .0012 mg/kg, control 9 days
[24] = Table XI, dose .0025 mg/kg, control 9 days
[25] = Table XI, dose .005 mg/kg, control 9 days
[26] = Table XI, dose .01 mg/kg, control 9 days
[27] = Table XII, dose ,0006 mg/kg, control 18.5 days
[28] = Table XII, dose .00007 mg/kg, control 18.5 days
[29] = Table XII, dose .00015 mg/kg, control 18.5 days
[30] = Table XII, dose .0003 mg/kg, control 18.5 days
[31] = Table XII, dose .00125 mg/kg, control 18.5 days
[32] = Table XII, dose .0025 mg/kg, control 18.5 days
[33] = Table XII, dose .005 mg/kg, control 18.5 days
[34] = Table XII, dose .01 mg/kg, control 18.5 days
[35] = Table IV, i.p. days 1, 5 and 9, dose 0.06 mg/kg, control 10.6 days
[36] = Table IV, i.p. days 1, 5 and 9, dose 0.06 mg/kg, control 12.4 days
[37] = Table IV, i.p. days 1, 5 and 9, dose 0.25 mg/kg, control 10.6 days
[38] = Table IV, i.p. days 1, 5 and 9, dose 0.4 mg/kg, control 12.4 days
[39] = Table IV, i.p. days 1, 5 and 9, dose 1.0 mg/kg, control 10.6 days
[40] = Table IV, i.p. days 1, 5 and 9, dose 1.0 mg/kg, control 12.4 days
[41] = Table V, i.p. days 1 through 9, dose 0.05 mg/kg, control 16 days
[42] = Table V, i.p. days 1 through 9, dose 0.1 mg/kg, control 16 days
[43] = Table V, i.p. days 1 through 9, dose 0.2 mg/kg, control 16 days
[44] = Table V, i.p. days 1 through 9, dose 0.4 mg/kg, control 16 days
[45] = Table VI, i.p., dose 1.25 mg/kg, control 8.3 days
[46] = Table VI, i.p., dose 2.5 mg/kg, control 8.3 days
[47] = Table VI, i.p., dose 5 mg/kg, control 8.3 days
[48] = Table VII, i.p. days 1, 5 and 9, dose 0.25 mg/kg, control 18.6 days
[49] = Table VII, i.p. days 1, 5 and 9, dose 0.5 mg/kg, control 18.6 days
[50] = Table VII, i.p. days 1, 5 and 9, dose 1 mg/kg, control 18.6 days
[51] = Table XII, dose 0.5 mg/kg, control 18.5 days
[52] = Table XII, dose 1 mg/kg, control 18.5 days
[53] = Table XII, dose 2 mg/kg, control 18.5 days

## CCN[C@H]1CO[C@@H](O[C@H]2[C@H](O[C@H]3C#CC=CC#C[C@@]4(O)CC(=O)C(NC(=O)OC)=C3/C4=C\CSSSC)O[C@H](C)[C@@H](NO[C@H]3C[C@H](O)[C@H](SC(=O)c4c(C)c(I)c(O[C@@H]5O[C@@H](C)[C@H](O)[C@@H](OC)[C@H]5O)c(OC)c4OC)[C@@H](C)O3)[C@@H]2O)C[C@@H]1OC (stereo in doubt) [LL-E33288γ1-I]
[1]; [3]
  Median Survival: 15 days
  T/C x 100: 115%
[1]; [4]
  Median Survival: 15.5 days
  T/C x 100: 119%
[1]; [5]
  Median Survival: 18 days
  T/C x 100: 138%
[1]; [6]
  Median Survival: 18.5 days
  T/C x 100: 142%
[1]; [7]
  Median Survival: 22 days
  T/C x 100: 169%
[1]; [8]
  Median Survival: >25.5 days
  T/C x 100: >196%
[1]; [9]
  Median Survival: 18.5 days
  T/C x 100: 168%
[1]; [10]
  Median Survival: 14 days
  T/C x 100: 127%
[1]; [11]
  Median Survival: 14 days
  T/C x 100: 127%
[1]; [12]
  Median Survival: 16 days
  T/C x 100: 145%
[1]; [13]
  Median Survival: 22.5 days
  T/C x 100: 205%
[1]; [14]
  Median Survival: 18 days
  T/C x 100: 164%
[1]; [15]
  Median Survival: 11 days
  T/C x 100: 100%
Melanotic melanoma B16; [16]
  Median Survival: 30.5 days
  T/C x 100: 179%
Melanotic melanoma B16; [17]
  Median Survival: 33.5 days
  T/C x 100: 197%
Melanotic melanoma B16; [18]
  Median Survival: 35.5 days
  T/C x 100: 209%
Melanotic melanoma B16; [19]
  Median Survival: 42.5 days
  T/C x 100: 250%
Melanotic melanoma B16; [20]
  Median Survival: 27 days
  T/C x 100: 159%
Melanotic melanoma B16; [21]
  Median Survival: 26.5 days
  T/C x 100: 156%
[2]; [22]
  Median Survival: 10 days
  T/C x 100: 111%
[2]; [23]
  Median Survival: 10.5 days
  T/C x 100: 117%
[2]; [24]
  Median Survival: 11 days
  T/C x 100: 122%
[2]; [25]
  Median Survival: 14 days
  T/C x 100: 156%
[2]; [26]
  Median Survival: 8 days
  T/C x 100: 89%
Colon 26 tumor; [27]
  Median Survival: 23.5 days
  T/C x 100: 127%
Colon 26 tumor; [28]
  Median Survival: 17 days
  T/C x 100: 92%
Colon 26 tumor; [29]
  Median Survival: 17.5 days
  T/C x 100: 95%
Colon 26 tumor; [30]
  Median Survival: 20 days
  T/C x 100: 108%
Colon 26 tumor; [31]
  Median Survival: 22.5 days
  T/C x 100: 122%
Colon 26 tumor; [32]
  Median Survival: 27 days
  T/C x 100: 146%
Colon 26 tumor; [33]
  Median Survival: 25.5 days
  T/C x 100: 138%
Colon 26 tumor; [34]
  Median Survival: 11 days
  T/C x 100: 59%

## N.N.[Cl][Pt][Cl] [Cisplatin, reference compound]
[1]; [35]
  Median Survival: 14.5 days
  T/C x 100: 137%
[1]; [36]
  Median Survival: 15 days
  T/C x 100: 121%
[1]; [37]
  Median Survival: 15 days
  T/C x 100: 142%
[1]; [38]
  Median Survival: 19 days
  T/C x 100: 153%
[1]; [39]
  Median Survival: 21.5 days
  T/C x 100: 203%
[1]; [40]
  Median Survival: 25.5 days
  T/C x 100: 206%
Melanotic melanoma B16; [41]
  Median Survival: 21.5 days
  T/C x 100: 134%
Melanotic melanoma B16; [42]
  Median Survival: 23 days
  T/C x 100: 144%
Melanotic melanoma B16; [43]
  Median Survival: 25 days
  T/C x 100: 156%
Melanotic melanoma B16; [44]
  Median Survival: 25 days
  T/C x 100: 156%
[2]; [45]
  Median Survival: 11 days
  T/C x 100: 133%
[2]; [46]
  Median Survival: 12 days
  T/C x 100: 145%
[2]; [47]
  Median Survival: 7.5 days
  T/C x 100: 90%
Colon 26 tumor; [48]
  Median Survival: 37.5 days
  T/C x 100: 202%
Colon 26 tumor; [49]
  Median Survival: 38.5 days
  T/C x 100: 207%
Colon 26 tumor; [50]
  Median Survival: 29 days
  T/C x 100: 156%
Colon 26 tumor; [51]
  Median Survival: 23.5 days
  T/C x 100: 127%
Colon 26 tumor; [52]
  Median Survival: 27.5 days
  T/C x 100: 149%
Colon 26 tumor; [53]
  Median Survival: 15.5 days
  T/C x 100: 84%
